pIC50: −log10 of the molar value.
How the values were obtained:
CDK4/Cyclin D1 = CDK4/Cyclin D1 (Homo sapiens, UniProt P11802); assay: CDK4/Cyclin D1 kinase inhibition TR-FRET assay; format: biochemical; details: 1 mM ATP, 0.15 μM Rb (Ser780)-biotin substrate, read-out: CDK4D1 IC50
Protocol: (§1) Compounds disclosed herein were tested for inhibition of CDK4/Cyclin D1 or CDK6/Cyclin D3 kinase in an assay based on the time-resolved fluorescence-resonance energy transfer (TR-FRET) methodology. The assay was carried out in 384-well low volume black plates in a reaction mixture containing CDK4/Cyclin D1 or CDK6/Cyclin D3, 1 mM ATP, 0.15 μM Rb (Ser780)-biotin substrate and 0-10 μM compound in buffer containing 50 mM HEPES pH7.0, 0.02% NaN3, 0.01% BSA, 0.1 mM Orthovanadate, 50 mM MgCl2, 1 mM DTT and 0.005% Tween-20. The kinase was incubated with compound for 60 minutes at room temperature and the reaction was initiated by the addition of ATP and Rb (Ser780)-biotin substrate. After reaction at room temperature for 120 minutes, an equal volume of stop/detection solution was added according to the manufacture's instruction (Cisbio Bioassays). The stop/detection solution contained Streptavidin-XL665 and Anti-pRb (Ser780) mAb-Eu Cryptate in Detection buffer (Cisbio Bioassays). Plates were incubated at room temperature for 60 minutes, and the TR-FRET signals (ex337 nm, em665 nm/620 nm) were recorded on a PHERAstar FSX plate reader (BMG Labtech). The inhibition percentage of CDK4/Cyclin D1 or CDK6/Cyclin D3 kinase activity in presence of increasing concentrations of compounds was calculated based on the ratio of fluorescence at 665 nm to that at 620 nm. The IC50 for each compound was derived from fitting the data to the four-parameter logistic equation by Dotmatics.

CDK6/Cyclin D3 = CDK6/Cyclin D3 (Homo sapiens, UniProt Q00534); assay: CDK6/Cyclin D3 kinase inhibition TR-FRET assay; format: biochemical; details: 1 mM ATP, 0.15 μM Rb (Ser780)-biotin substrate, read-out: CDK6D3 IC50
Chain of CDK6/Cyclin D3 (Q00534 whole entry): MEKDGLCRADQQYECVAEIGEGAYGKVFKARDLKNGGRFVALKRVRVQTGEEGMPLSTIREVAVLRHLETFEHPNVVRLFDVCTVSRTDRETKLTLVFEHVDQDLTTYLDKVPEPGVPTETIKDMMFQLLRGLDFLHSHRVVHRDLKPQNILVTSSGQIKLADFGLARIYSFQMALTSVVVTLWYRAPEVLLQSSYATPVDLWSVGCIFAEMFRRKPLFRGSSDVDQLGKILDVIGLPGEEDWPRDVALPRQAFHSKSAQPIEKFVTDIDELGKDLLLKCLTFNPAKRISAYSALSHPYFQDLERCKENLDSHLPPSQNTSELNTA
Chain of CDK6/Cyclin D3 (P30281 whole entry partner): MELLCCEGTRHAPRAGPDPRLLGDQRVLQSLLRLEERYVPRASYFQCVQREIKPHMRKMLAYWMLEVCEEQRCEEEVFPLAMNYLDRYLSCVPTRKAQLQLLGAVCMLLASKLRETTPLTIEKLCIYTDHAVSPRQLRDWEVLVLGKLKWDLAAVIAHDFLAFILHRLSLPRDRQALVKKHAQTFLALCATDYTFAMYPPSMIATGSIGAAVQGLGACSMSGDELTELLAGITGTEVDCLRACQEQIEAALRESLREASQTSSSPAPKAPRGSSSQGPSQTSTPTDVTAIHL
Protocol: as §1

Chain of CDK4/Cyclin D1 (P11802 whole entry): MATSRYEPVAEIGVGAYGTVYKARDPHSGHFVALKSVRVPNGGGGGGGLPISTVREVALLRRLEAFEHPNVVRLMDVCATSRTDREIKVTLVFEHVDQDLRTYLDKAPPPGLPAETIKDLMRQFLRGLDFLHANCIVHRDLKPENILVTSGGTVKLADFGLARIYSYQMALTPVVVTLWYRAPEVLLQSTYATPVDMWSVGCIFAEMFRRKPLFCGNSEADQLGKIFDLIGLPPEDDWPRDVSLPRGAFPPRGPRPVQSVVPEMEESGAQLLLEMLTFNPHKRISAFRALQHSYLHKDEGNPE
Chain of CDK4/Cyclin D1 (P24385 whole entry partner): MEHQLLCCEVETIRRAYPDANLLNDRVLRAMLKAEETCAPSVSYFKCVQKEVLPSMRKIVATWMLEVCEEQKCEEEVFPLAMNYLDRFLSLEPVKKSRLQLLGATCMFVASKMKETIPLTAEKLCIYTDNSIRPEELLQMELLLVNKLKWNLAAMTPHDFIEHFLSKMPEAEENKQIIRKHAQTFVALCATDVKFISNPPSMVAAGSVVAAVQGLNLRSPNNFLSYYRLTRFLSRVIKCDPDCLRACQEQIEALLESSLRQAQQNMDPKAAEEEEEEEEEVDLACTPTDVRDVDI

| SMILES | pIC50 (CDK4/Cyclin D1) | pIC50 (CDK6/Cyclin D3) |
| --- | --- | --- |
| CC(C)c1c(CN2CCOCC2)cnc2ccc(-c3nc(N[C@@H]4CCOC[C@@H]4O)ncc3F)cc12 [Example 2, (3R,4R)-4-((5-fluoro-4-(4-isopropyl-3-(morpholinomethyl)quinolin-6-yl)pyrimidin-2-yl)amino)tetrahydro-2H-pyran-3-ol] | 7.68 | 6.34 |
| CC(C)c1c(CN[C@@H]2CCCOC2)cnc2ccc(-c3nc(N[C@@H]4CCOC[C@@H]4O)ncc3F)cc12 [Example 3, (3R,4R)-4-((5-fluoro-4-(4-isopropyl-3-((((R)-tetrahydro-2H-pyran-3-yl)amino)methyl)quinolin-6-yl)pyrimidin-2-yl)amino)tetrahydro-2H-pyran-3-ol] | 7.80 | 5.96 |
| CC(C)c1c(CN2CC(O)C2)cnc2ccc(-c3nc(N[C@@H]4CCOC[C@@H]4O)ncc3F)cc12 [Example 5, 1-((6-(5-fluoro-2-(((3R,4R)-3-hydroxytetrahydro-2H-pyran-4-yl)amino)pyrimidin-4-yl)-4-isopropylquinolin-3-yl)methyl)azetidin-3-ol] | 7.59 | 5.74 |
| CC(C)c1c(CN2CCC[C@@H](C#N)C2)cnc2ccc(-c3nc(N[C@@H]4CCOC[C@@H]4O)ncc3F)cc12 [Example 7, (R)-1-((6-(5-fluoro-2-(((3R,4R)-3-hydroxytetrahydro-2H-pyran-4-yl)amino)pyrimidin-4-yl)-4-isopropylquinolin-3-yl)methyl)piperidine-3-carbonitrile] | 7.62 | 6.26 |
| CC(C)c1c(CN2[C@H](C)COC[C@@H]2C)cnc2ccc(-c3nc(N[C@@H]4CCOC[C@@H]4O)ncc3F)cc12 [Example 8, (3R,4R)-4-((4-(3-(((3R,5S)-3,5-dimethylmorpholino)methyl)-4-isopropylquinolin-6-yl)-5-fluoropyrimidin-2-yl)amino)tetrahydro-2H-pyran-3-ol] | 7.68 | 6.04 |
| CC(C)c1c(CN2[C@H](C)COC[C@H]2C)cnc2ccc(-c3nc(N[C@@H]4CCOC[C@@H]4O)ncc3F)cc12 [Example 9, (3R,4R)-4-((4-(3-(((3R,5R)-3,5-dimethylmorpholino)methyl)-4-isopropylquinolin-6-yl)-5-fluoropyrimidin-2-yl)amino)tetrahydro-2H-pyran-3-ol] | 7.66 | 6.27 |
| CC(C)c1c(CNC2CC2)cnc2ccc(-c3nc(N[C@@H]4CCOC[C@@H]4O)ncc3F)cc12 [Example 10, (3R,4R)-4-((4-(3-((cyclopropylamino)methyl)-4-isopropylquinolin-6-yl)-5-fluoropyrimidin-2-yl)amino)tetrahydro-2H-pyran-3-ol] | 7.92 | 6.29 |
| CC(C)c1c(CN[C@H]2CCOC2)cnc2ccc(-c3nc(N[C@@H]4CCOC[C@@H]4O)ncc3F)cc12 [Example 11, (3R,4R)-4-((5-fluoro-4-(4-isopropyl-3-((((S)-tetrahydrofuran-3-yl)amino)methyl)quinolin-6-yl)pyrimidin-2-yl)amino)tetrahydro-2H-pyran-3-ol] | 7.80 | 5.90 |
| CC(C)c1c(CNC2CC(F)(F)C2)cnc2c(F)cc(-c3nc(N[C@@H]4CCOC[C@@H]4O)ncc3F)cc12 [Example 14, (3R,4R)-4-((4-(3-(((3,3-difluorocyclobutyl)amino)methyl)-8-fluoro-4-isopropylquinolin-6-yl)-5-fluoropyrimidin-2-yl)amino)tetrahydro-2H-pyran-3-ol] | 7.82 | 6.34 |
| CC(C)c1c(CN[C@@H]2CCCOC2)cnc2c(F)cc(-c3nc(N[C@@H]4CCOC[C@@H]4O)ncc3F)cc12 [Example 15, (3R,4R)-4-((5-fluoro-4-(8-fluoro-4-isopropyl-3-((((R)-tetrahydro-2H-pyran-3-yl)amino)methyl)quinolin-6-yl)pyrimidin-2-yl)amino)tetrahydro-2H-pyran-3-ol] | 7.68 | 6.15 |
| CC(C)c1c(C(C)(C)O)cnc2c(F)cc(-c3nc(N[C@@H]4CCOC[C@@H]4O)ncc3Cl)cc12 [Example 17, (3R,4R)-4-((5-chloro-4-(8-fluoro-3-(2-hydroxypropan-2-yl)-4-isopropylquinolin-6-yl)pyrimidin-2-yl)amino)tetrahydro-2H-pyran-3-ol] | 8.05 | 6.64 |

Molecules with a higher pIC50 (CDK4/Cyclin D1), results first:

| pIC50 (CDK4/Cyclin D1) | pIC50 (CDK6/Cyclin D3) | SMILES |
| --- | --- | --- |
| 8.10 | 6.97 | CC(C)c1c(CO)cnc2ccc(-c3nc(N[C@@H]4CCOC[C@@H]4O)ncc3F)cc12 [Example 1, (3R,4R)-4-((5-fluoro-4-(3-(hydroxymethyl)-4-isopropylquinolin-6-yl)pyrimidin-2-yl)amino)tetrahydro-2H-pyran-3-ol] |
| 8.59 | 6.72 | CC(C)c1c(CN)cnc2ccc(-c3nc(N[C@@H]4CCOC[C@@H]4O)ncc3F)cc12 [Example 4, (3R,4R)-4-((4-(3-(aminomethyl)-4-isopropylquinolin-6-yl)-5-fluoropyrimidin-2-yl)amino)tetrahydro-2H-pyran-3-ol] |
| 8.15 | 6.56 | CC(C)c1c(CN2CCC[C@H](C#N)C2)cnc2ccc(-c3nc(N[C@@H]4CCOC[C@@H]4O)ncc3F)cc12 [Example 6, (S)-1-((6-(5-fluoro-2-(((3R,4R)-3-hydroxytetrahydro-2H-pyran-4-yl)amino)pyrimidin-4-yl)-4-isopropylquinolin-3-yl)methyl)piperidine-3-carbonitrile] |
| 8.26 | 6.52 | CC(C)c1c(C2(O)CCCC2)cnc2ccc(-c3nc(N[C@@H]4CCOC[C@@H]4O)ncc3F)cc12 [Example 12, (3R,4R)-4-((5-fluoro-4-(3-(1-hydroxycyclopentyl)-4-isopropylquinolin-6-yl)pyrimidin-2-yl)amino)tetrahydro-2H-pyran-3-ol] |
| 8.12 | 6.54 | CC(C)c1c(CN2[C@H](C)COC[C@@H]2C)cnc2c(F)cc(-c3nc(N[C@@H]4CCOC[C@@H]4O)ncc3F)cc12 [Example 13, (3R,4R)-4-((4-(3-(((3R,5S)-3,5-dimethylmorpholino)methyl)-8-fluoro-4-isopropylquinolin-6-yl)-5-fluoropyrimidin-2-yl)amino)tetrahydro-2H-pyran-3-ol] |
| 8.36 | 7.03 | CC(C)c1c(C2(O)CCCC2)cnc2c(F)cc(-c3nc(N[C@@H]4CCOC[C@@H]4O)ncc3F)cc12 [Example 16, (3R,4R)-4-((5-fluoro-4-(8-fluoro-3-(1-hydroxycyclopentyl)-4-isopropylquinolin-6-yl)pyrimidin-2-yl)amino)tetrahydro-2H-pyran-3-ol] |
| 8.08 | 6.56 | CC(C)c1c(C2(O)CCOCC2)cnc2c(F)cc(-c3nc(N[C@@H]4CCOC[C@@H]4O)ncc3Cl)cc12 [Example 18, (3R,4R)-4-((5-chloro-4-(8-fluoro-3-(4-hydroxytetrahydro-2H-pyran-4-yl)-4-isopropylquinolin-6-yl)pyrimidin-2-yl)amino)tetrahydro-2H-pyran-3-ol] |
| 8.10 | 6.39 | CC(C)c1c(CN2[C@H](C)COC[C@@H]2C)cnc2c(F)cc(-c3nc(N[C@@H]4CCOC[C@@H]4O)ncc3Cl)cc12 [Example 21, (3R,4R)-4-((5-chloro-4-(3-(((3R,5S)-3,5-dimethylmorpholino)methyl)-8-fluoro-4-isopropylquinolin-6-yl)pyrimidin-2-yl)amino)tetrahydro-2H-pyran-3-ol] |
